Assay results: patent US7589108B2, “1-Heterocyclylalkyl-3-sulfonylindole or -indazole derivatives as 5-hydroxytryptamine-6 ligands” (Wyeth, priority 2002, dated 2009)
Counter-ions that a name gives are not always drawn. Like-named read-outs stand apart in the source and are kept apart here.

How the values were obtained:
[1] = target: T1, human cloned 5-HT6 receptors (Homo sapiens, UniProt P50406); experiment: 5-HT6 binding affinity ([3H]-LSD displacement, membranes of Hela cells)
T1 construct: expressed in transfected cells; host or cells: HeLa cells
T1 sequence (P50406 whole entry): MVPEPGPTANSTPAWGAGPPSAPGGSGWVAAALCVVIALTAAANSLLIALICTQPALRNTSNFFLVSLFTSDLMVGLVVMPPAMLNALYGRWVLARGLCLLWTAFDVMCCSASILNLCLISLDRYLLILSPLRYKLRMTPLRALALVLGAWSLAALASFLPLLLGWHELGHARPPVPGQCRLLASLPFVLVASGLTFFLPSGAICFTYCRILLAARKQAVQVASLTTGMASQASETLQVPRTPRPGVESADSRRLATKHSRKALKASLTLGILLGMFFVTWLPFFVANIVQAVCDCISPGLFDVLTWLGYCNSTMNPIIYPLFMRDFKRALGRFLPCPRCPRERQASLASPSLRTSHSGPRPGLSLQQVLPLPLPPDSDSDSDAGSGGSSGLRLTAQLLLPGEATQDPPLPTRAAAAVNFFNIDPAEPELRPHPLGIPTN
Method: The affinity of test compounds for the serotonin 5-HT6 receptor is evaluated in the following manner. Cultured Hela cells expressing human cloned 5-HT6 receptors are harvested and centrifuged at low speed (1,000×g) for 10.0 min to remove the culture media. The harvested cells are suspended in half volume of fresh physiological phosphate buffered saline solution and recentrifuged at the same speed. This operation is repeated. The collected cells are then homogenized in ten volumes of 50 mM Tris.HCl (pH 7.4) and 0.5 mM EDTA. The homogenate is centrifuged at 40,000×g for 30.0 min and the precipitate is collected. The obtained pellet is resuspended in 10 volumes of Tris.HCl buffer and recentrifuged at the same speed. The final pellet is suspended in a small volume of Tris.HCl buffer and the tissue protein content is determined in aliquots of 10-25 μl volumes. Bovine Serum Albumin is used as the standard in the protein determination according to the method described in Lowry et al., J. Biol. Chem., 193:265 (1951). The volume of the suspended cell membranes is adjusted to give a tissue protein concentration of 1.0 mg/ml of suspension. The prepared membrane suspension (10 times concentrated) is aliquoted in 1.0 ml volumes and stored at −70° C. until used in subsequent binding experiments.
Binding experiments are performed in a 96 well microtiter plate format, in a total volume of 200 μl. […] The test compounds are added in 20.0 μl volume.
The reaction is allowed to proceed in the dark for 120 min at room temperature, at which time, the bound ligand-receptor complex is filtered off on a 96 well unifilter with a Packard Filtermate® 196 Harvester. The bound complex caught on the filter disk is allowed to air dry and the radioactivity is measured in a Packard TopCount® equipped with six photomultiplier detectors, after the addition of 40.0 μl Microscint®-20 scintillant to each shallow well. The unifilter plate is heat-sealed and counted in a PackardTopCount® with a tritium efficiency of 31.0%.
Binding in the presence of varying concentrations of test compound is expressed as a percentage of specific binding in the absence of test compound. The results are plotted as log % bound versus log concentration of test compound. […] A linear regression line of data points is plotted, from which the IC50 value is determined and the Ki value is determined based upon the following equation: Ki=IC50/(1+L/KD) where L is the concentration of the radioactive ligand used and KD is the dissociation constant of the ligand for the receptor, both expressed in nM.

[2] = [3H]-LSD 3.0 nM, Hela cell membranes expressing human cloned 5-HT6 receptors, 120 min at room temperature, read-out: 5-HT6 Binding Ki

Ki [1, 2]	melting point	Structure (SMILES)	Ki [1]
27 nM	–	O=S(=O)(c1ccccc1)c1cn(CC2CCNCC2)c2ccccc12 [Example 4, 3-(Phenylsulfonyl)-1-(Piperidin-4-ylmethyl)-1H-indole Hydrochloride]	–
122 nM	–	O=S(=O)(c1ccccc1)c1cn(C2CCCN(Cc3ccccc3)C2)c2ccccc12 (stereo not drawn) [Example 8, 1-(1-Benzylpiperidin-3-yl)-3-(phenylsulfonyl)-1H-indole]	–
13 nM	–	O=S(=O)(c1ccccc1)c1cn(C2CCCNC2)c2ccccc12 (stereo not drawn) [Example 9, 3-(Phenylsulfonyl)-1-(piperidin-3-yl)-1H-indole Hydrochloride]	–
91 nM	294 to 297 °C	O=S(=O)(c1ccccc1)c1cn(C2CCNCC2)c2ccccc12 [Example 13]	–
21 nM	> 180 °C (dec.)	O=S(=O)(c1cccc2ccccc12)c1cn(C2CCCNC2)c2ccccc12 (stereo not drawn) [Example 14]	–
6 nM	> 195 °C (dec.)	O=S(=O)(c1cn(C2CCCNC2)c2ccccc12)c1cccc2cccnc12 (stereo not drawn) [Example 15]	–
5 nM	> 150 °C (dec.)	O=S(=O)(c1cccc(Cl)c1)c1cn(C2CCCNC2)c2ccccc12 (stereo not drawn) [Example 17]	–
11 nM	267 to 270 °C	COc1ccc2c(c1)c(S(=O)(=O)c1cccc(F)c1)cn2C1CCCNC1 (stereo not drawn) [Example 18]	–
68 nM	262 to 265 °C	COc1ccc2c(c1)c(S(=O)(=O)c1cccc(F)c1)cn2C1CCCN(C)C1 (stereo not drawn) [Example 19]	–
4 nM	–	O=S(=O)(c1cccc(F)c1)c1cn(C2CCCNC2)c2ccc(F)cc12 (stereo not drawn) [Example 20]	–
29 nM	–	O=S(=O)(c1cccc(F)c1)c1cn(C2CCCNC2)c2ccc(Cl)cc12 (stereo not drawn) [Example 22]	–
62 nM	242 to 245 °C	CN1CCCC(n2cc(S(=O)(=O)c3cccc(F)c3)c3cc(Cl)ccc32)C1 (stereo not drawn) [Example 23]	–

Structure (SMILES)	Ki [1, 2]	melting point	Ki [1]
O=S(=O)(c1ccccc1)c1cn(C2CCN(Cc3ccccc3)CC2)c2ccccc12 [Example 12]	–	288 to 291 °C	49 nM
